The source of these data is PubChem BioAssay AID256 (DTP/NCI, 2004).

This assay concerns CD2F1 mice, L1210 leukemia ip, survival T/C. Description: NCI In Vivo Anticancer Drug Screen. Data for tumor model L1210 Leukemia (intraperitoneal) in CD2F1 (CDF1) mice. The settings on record: higher = longer survival. On the procedure: The antitumor activity of compounds was measured in mice bearing transplantable tumors. Survival or tumor size were measured and the results are expressed as the measurement made in the treated group (T) divided by the measurement made in the vehicle treated control group (C). The tumor model used in this assay is L1210 Leukemia (intraperitoneal) in CD2F1 (CDF1) mice

Setting [1] is: endpoint: mean survival time, dose: 12.5 mg/kg/injection, schedule: Q04DX002 (ip), vehicle: saline with Tween-80.
The mark [2] stands for this setting: endpoint: mean survival time, dose: 25.0 mg/kg/injection, schedule: Q04DX002 (ip), vehicle: saline with Tween-80.

Molecules are shown by their SMILES. Values joined by “and” are separate entries in the source; they are usually repeats but may differ in a detail not shown here. Equal entries are not always repeated. Toxic doses and inconclusive results are not listed.

`CC1OC(O[C@H]2/C=C/C=C/C=C/C=C/C=C/C=C/C=C/[C@H](C)[C@@H](O)[C@@H](C)[C@H](C)OC(=O)C[C@H](O)C[C@H](O)CC[C@@H](O)[C@H](O)C[C@H](O)C[C@]3(O)C[C@H](O)[C@@H](C(=O)O)[C@H](C2)O3)C(O)C(N)C1O` (stereo not given in full): the T/C (endpoint: median survival time, dose: 2.0 mg/kg/injection, schedule: Q01DX009 (ip), vehicle: suspension in saline) is 97 % of control; the T/C (endpoint: median survival time, dose: 4.0 mg/kg/injection, schedule: Q01DX009 (ip), vehicle: suspension in saline) was 102 % of control; the T/C (endpoint: median survival time, dose: 8.0 mg/kg/injection, schedule: Q01DX009 (ip), vehicle: suspension in saline) is 102 % of control; the T/C (endpoint: median survival time, dose: 16.0 mg/kg/injection, schedule: Q01DX009 (ip), vehicle: suspension in saline) was 97 % of control and 98 % of control; the T/C (endpoint: median survival time, dose: 18.75 mg/kg/injection, schedule: Q01DX009 (ip), vehicle: suspension in saline) was 108 % of control; the T/C (endpoint: median survival time, dose: 32.0 mg/kg/injection, schedule: Q01DX009 (ip), vehicle: suspension in saline) was 102 % of control and 105 % of control. Moreover, the T/C runs as follows: (endpoint: median survival time, dose: 37.5 mg/kg/injection, schedule: Q01DX009 (ip), vehicle: suspension in saline) 104 % of control; (endpoint: median survival time, dose: 64.0 mg/kg/injection, schedule: Q01DX009 (ip), vehicle: suspension in saline) 101 % of control; (endpoint: median survival time, dose: 75.0 mg/kg/injection, schedule: Q01DX009 (ip), vehicle: suspension in saline) 104 % of control; (endpoint: median survival time, dose: 128.0 mg/kg/injection, schedule: Q01DX009 (ip), vehicle: suspension in saline) 105 % of control; (endpoint: median survival time, dose: 150.0 mg/kg/injection, schedule: Q01DX009 (ip), vehicle: suspension in saline) 112 % of control; (endpoint: median survival time, dose: 300.0 mg/kg/injection, schedule: Q01DX009 (ip), vehicle: suspension in saline) 106 % of control.

Regarding `O=C1[C@H]2CCC[C@H]2[C@H]2CCC[C@@H]12`, the T/C is 98 % of control (endpoint: median survival time, dose: 6.25 mg/kg/injection, schedule: Q01DX009 (ip), vehicle: saline with Tween-80); 106 % of control (endpoint: median survival time, dose: 12.5 mg/kg/injection, schedule: Q01DX009 (ip), vehicle: saline with Tween-80); 98 % of control (endpoint: median survival time, dose: 25.0 mg/kg/injection, schedule: Q01DX009 (ip), vehicle: saline with Tween-80); 101 % of control (endpoint: median survival time, dose: 50.0 mg/kg/injection, schedule: Q01DX009 (ip), vehicle: saline with Tween-80); 106 % of control (endpoint: median survival time, dose: 100.0 mg/kg/injection, schedule: Q01DX009 (ip), vehicle: saline with Tween-80); 97 % of control (endpoint: median survival time, dose: 200.0 mg/kg/injection, schedule: Q01DX009 (ip), vehicle: saline with Tween-80).

With `O=C(O)COc1ccc([N+](=O)[O-])cc1`, the T/C was 101 % of control (endpoint: mean survival time, dose: 100.0 mg/kg/injection, schedule: Q01DX009 (ip), vehicle: saline with Tween-80); 94 % of control (endpoint: mean survival time, dose: 200.0 mg/kg/injection, schedule: Q01DX009 (ip), vehicle: saline with Tween-80); 101 % of control (endpoint: mean survival time, dose: 400.0 mg/kg/injection, schedule: Q01DX009 (ip), vehicle: saline with Tween-80).

With `Nc1nc(OCc2ccccc2)ncc1C(=O)NCC(=O)O`, the T/C is 105 % of control (endpoint: mean survival time, dose: 12.5 mg/kg/injection, schedule: Q01DX009 (ip), vehicle: saline with Tween-80); 100 % of control (endpoint: mean survival time, dose: 25.0 mg/kg/injection, schedule: Q01DX009 (ip), vehicle: saline with Tween-80); 104 % of control (endpoint: mean survival time, dose: 50.0 mg/kg/injection, schedule: Q01DX009 (ip), vehicle: saline with Tween-80).

For `O=C(Nc1cc(Cl)c(I)cc1Cl)C(F)(F)F`, the T/C was 102 % of control (endpoint: mean survival time, dose: 100.0 mg/kg/injection, schedule: Q01DX001 (ip), vehicle: saline); 111 % of control (endpoint: mean survival time, dose: 200.0 mg/kg/injection, schedule: Q01DX001 (ip), vehicle: saline); 90 % of control (endpoint: mean survival time, dose: 400.0 mg/kg/injection, schedule: Q01DX001 (ip), vehicle: saline).

On to `COc1ccc2c(c1O)CNCC2c1ccc(O)c(O)c1` (stereo not given), for which the T/C reads like this: (endpoint: mean survival time, dose: 75.0 mg/kg/injection, schedule: Q01DX001 (ip), vehicle: saline) 106 % of control; (endpoint: mean survival time, dose: 150.0 mg/kg/injection, schedule: Q01DX001 (ip), vehicle: saline) 106 % of control; (endpoint: mean survival time, dose: 300.0 mg/kg/injection, schedule: Q01DX001 (ip), vehicle: saline) 108 % of control.

For `CC(C)(CCC#N)/C(=N\Nc1ccc([N+](=O)[O-])cc1[N+](=O)[O-])c1ccccc1`, the T/C was 90 % of control (endpoint: mean survival time, dose: 75.0 mg/kg/injection, schedule: Q04DX002 (ip), vehicle: saline with Tween-80); 102 % of control (endpoint: mean survival time, dose: 150.0 mg/kg/injection, schedule: Q04DX002 (ip), vehicle: saline with Tween-80); 94 % of control (endpoint: mean survival time, dose: 300.0 mg/kg/injection, schedule: Q04DX002 (ip), vehicle: saline with Tween-80).

In the case of `OCC1OC(n2cnc3c(Cl)ncnc32)C(O)C1O` (stereo not given), the T/C by setting is: (endpoint: mean survival time, dose: 12.5 mg/kg/injection, schedule: Q01DX009 (ip), vehicle: saline) 86 % of control; (endpoint: mean survival time, dose: 25.0 mg/kg/injection, schedule: Q01DX009 (ip), vehicle: saline) 93 % of control; (endpoint: mean survival time, dose: 50.0 mg/kg/injection, schedule: Q01DX009 (ip), vehicle: saline) 93 % of control; (endpoint: mean survival time, dose: 62.0 mg/kg/injection, schedule: Q01DX Z (ip), vehicle: carboxymethylcellulose (CMC)) 97 % of control; (endpoint: mean survival time, dose: 100.0 mg/kg/injection, schedule: Q01DX009 (ip), vehicle: saline) 98 % of control; (endpoint: mean survival time, dose: 125.0 mg/kg/injection, schedule: Q01DX Z (ip), vehicle: carboxymethylcellulose (CMC)) 102 % of control. The T/C reads like this: (endpoint: mean survival time, dose: 200.0 mg/kg/injection, schedule: Q01DX009 (ip), vehicle: saline) 92 % of control; (endpoint: mean survival time, dose: 250.0 mg/kg/injection, schedule: Q01DX Z (ip), vehicle: carboxymethylcellulose (CMC)) 100 % of control; (endpoint: mean survival time, dose: 400.0 mg/kg/injection, schedule: Q01DX009 (ip), vehicle: saline) 98 % of control; (endpoint: mean survival time, dose: 500.0 mg/kg/injection, schedule: Q01DX Z (ip), vehicle: carboxymethylcellulose (CMC)) 96 % of control; (endpoint: median survival time, dose: 62.5 mg/kg/injection, schedule: Q01DX009 (ip), vehicle: saline) 94 % of control and 100 % of control; (endpoint: median survival time, dose: 125.0 mg/kg/injection, schedule: Q01DX009 (ip), vehicle: saline) 100 % of control. In addition, the T/C was 88 % of control and 100 % of control (endpoint: median survival time, dose: 250.0 mg/kg/injection, schedule: Q01DX009 (ip), vehicle: saline); 88 % of control (endpoint: median survival time, dose: 500.0 mg/kg/injection, schedule: Q01DX009 (ip), vehicle: saline).

Consider `O=C1CC2(C(=O)N1CN1CCCCC1)c1ccccc1-c1ccccc12`, for which the T/C was 94 % of control and 102 % of control (endpoint: mean survival time, dose: 12.5 mg/kg/injection, schedule: Q01DX009 (ip), vehicle: Klucel (hydroxypropylcellulose) (HPC)); 91 % of control and 105 % of control (endpoint: mean survival time, dose: 25.0 mg/kg/injection, schedule: Q01DX009 (ip), vehicle: Klucel (hydroxypropylcellulose) (HPC)); 98 % of control and 100 % of control (endpoint: mean survival time, dose: 50.0 mg/kg/injection, schedule: Q01DX009 (ip), vehicle: Klucel (hydroxypropylcellulose) (HPC)); 94 % of control and 102 % of control (endpoint: mean survival time, dose: 100.0 mg/kg/injection, schedule: Q01DX009 (ip), vehicle: Klucel (hydroxypropylcellulose) (HPC)); 100 % of control (endpoint: mean survival time, dose: 200.0 mg/kg/injection, schedule: Q01DX009 (ip), vehicle: Klucel (hydroxypropylcellulose) (HPC)); 158 % of control (endpoint: mean survival time, dose: 400.0 mg/kg/injection, schedule: Q01DX009 (ip), vehicle: Klucel (hydroxypropylcellulose) (HPC)).

Take `O=[N+]([O-])c1ccc(-c2ccccc2)c([As](=O)(O)O)c1`: the T/C (endpoint: mean survival time, dose: 6.25 mg/kg/injection, schedule: Q04DX002 (ip), vehicle: saline with Tween-80) was 124 % of control; the T/C under setting [1] was 116 % of control; the T/C under setting [2] is 104 % of control.

As for `O=C1C(C(O)c2ccccc2)CCCC1C(O)c1ccccc1` (stereo not given), the T/C reads like this: (endpoint: mean survival time, dose: 100.0 mg/kg/injection, schedule: Q04DX003 (ip), vehicle: saline with Tween-80) 89 % of control; (endpoint: mean survival time, dose: 200.0 mg/kg/injection, schedule: Q04DX003 (ip), vehicle: saline with Tween-80) 89 % of control; (endpoint: mean survival time, dose: 400.0 mg/kg/injection, schedule: Q04DX003 (ip), vehicle: saline with Tween-80) 92 % of control.

As to `CC(C)NC(=O)C1CC2c3cccc4c3C(CN4)CC2N(C)C1` (stereo not given), the T/C runs as follows: under setting [1], 98 % of control; under setting [2], 95 % of control; (endpoint: mean survival time, dose: 50.0 mg/kg/injection, schedule: Q04DX002 (ip), vehicle: saline with Tween-80) 98 % of control.

For `CC(C)C([N+](C)(C)C)P(=O)([O-])O` (stereo not given), the T/C reads like this: (endpoint: mean survival time, dose: 100.0 mg/kg/injection, schedule: Q04DX003 (ip), vehicle: saline) 101 % of control; (endpoint: mean survival time, dose: 200.0 mg/kg/injection, schedule: Q04DX003 (ip), vehicle: saline) 96 % of control; (endpoint: mean survival time, dose: 400.0 mg/kg/injection, schedule: Q04DX003 (ip), vehicle: saline) 101 % of control.
